Experimental findings from patent publication US6358736B1, “Method for increasing the antigen presenting ability of leukemia cells” (The United States of America as represented by the …, priority 1995, dated 2002) are described below.

Assay [1] deals with human peripheral blood monocytes. The assay can be described thus: FACS analysis of cell surface markers on cultured peripheral blood monocytes. The class given is cell-based. The conditions noted are these: for effect of agent on ionophore-induced activated myeloid dendritic cell phenotype: added to calcium ionophore treatment; for induction of activated myeloid dendritic cell phenotype (CD80 and CD83 expression): 20-40 hours, wide dose range, alone or in combination. (In flow cytometry, cells or beads pass a laser one at a time.)

Assay [2] deals with HL-60 cells. In words: FACS analysis of cell surface markers on HL-60 cells. Format: cell-based, human. Here is the method: Calcium was removed from cultured cells by two methods.
The second method involved washing the cells extensively in calcium-free RPMI medium, and culturing them in the same calcium-free medium supplemented with serum that had been dialyzed against calcium-free phosphate-buffered saline.
The calmodulin kinase inhibitors KN-62 (20 uM) or KT-5926 (1 uM) was added to HL-60 cells in the presence of 188 ng/ml A23187. Twenty four hours later the level of CD80 was analyzed.
Thapsigargin was added to cultured human peripheral blood monocytes and HL-60 cells in concentrations ranging from 0 to 1000 nM. Cells were harvested 24 hours later and evaluated for the acquisition of ADC immunophenotypic characteristics by FACS analysis.
Cells were harvested after three days, irradiated (3000R), then FACS analyzed or cocultured in graded numbers with freshly prepared naive (CD45RO negative) T lymphocytes. Allosensitization was assessed by pulsing at day 4 with ^3H-TdR and harvesting 18 hours later.

The subject of assay [3] is HL-60 cells. The description is as above. Format: cell-based, human. This is another data set of the same source.
[4] abbreviates: KT5926 1 uM, 750 ng/ml ionophore, 24 hours.

“Also recorded” adds a separate entry of the source.

On to `C[C@H]1O[C@@H](n2cnc3c(N)ncnc32)C[C@@H]1O` [2′5′-DDA], for which the “effect of agent on ionophore-induced activated myeloid dendritic cell phenotype” value in assay [1] is “enhanced CD14 downregulation and upregulation of costimulatory, MHC, and other molecule expression”.
Regarding `O=C(O)CN(CCN(CC(=O)O)CC(=O)O)CC(=O)O` [EDTA], the “suppression of ionophore-induced CD80/CD86” value with HL-60 cells [2] (0.25 uM EDTA) is recorded as “suppressive effects rapidly diminished”. Besides, the “suppression of ionophore-induced CD80/CD86” value with HL-60 cells [2] (0.5 uM EDTA) is “Almost identical suppression”. In the assay on HL-60 cells [2] (1 uM EDTA), the “diminution of ionophore-induced CD86 levels” value was “more than 85%” and the “suppression of ionophore-induced CD80 upregulation” value came to 100%.
With `CN([C@@H](Cc1ccc(OS(=O)(=O)c2cccc3cnccc23)cc1)C(=O)N1CCN(c2ccccc2)CC1)S(=O)(=O)c1cccc2cnccc12` [KN-62], the “effect of agent on ionophore-induced activated myeloid dendritic cell phenotype” value in assay [1] is listed as “inhibited at least some of the ionophore's effects”.
With `COC(=O)[C@@]1(OC)C[C@H]2O[C@]1(C)n1c3ccccc3c3c4c(c5c6ccccc6n2c5c31)C(=O)N(C)C4` [KT5823], the “effect of agent on ionophore-induced activated myeloid dendritic cell phenotype” value in assay [1] was “inhibited at least some of the ionophore's effects”.
As for `CCCOc1ccc2c(c1)c1c3c(c4c5ccccc5n5c4c1n2[C@H]1C[C@](O)(C(=O)OC)[C@]5(C)O1)CNC3=O` [KT-5926], in assay [1] (setting [4]), the “suppression of CD40” value is greater than 50%, the “suppression of CD80” value is on record as greater than 60%, the “suppression of CD86” value is “about 50%” and the “suppression of HLA-ABC” value is on record as “over 40%”. Also, the “suppression of HLA-DR” value in assay [1] (setting [4]) is given as “modest, but detectable suppression”. Moreover, in assay [1], the “effect of agent on ionophore-induced activated myeloid dendritic cell phenotype” value is recorded as “inhibited at least some of the ionophore's effects”.
Turning to `CCCCC[C@H](O)/C=C/[C@H]1[C@H](O)CC(=O)[C@@H]1C/C=C\CCCC(=O)O` [PGE2], in assay [1], the “effect of agent on ionophore-induced activated myeloid dendritic cell phenotype” value was “inhibited at least some of the ionophore's effects”.
Turning to `NCCCCCCNS(=O)(=O)c1cccc2c(Cl)cccc12` [W-7], the “inhibition of ionophore-induced CD80 expression” value in the assay with HL-60 cells [3] (W-7 50 uM (optimal), A23187 188 ng/ml, 24 hours) is recorded as “over 75%”. For the same molecule, in assay [1], the “effect of agent on ionophore-induced activated myeloid dendritic cell phenotype” value is “inhibited at least some of the ionophore's effects”.
`C[C@@H]1[C@H](O)[C@@H](C)/C=C/C=C/C=C/C=C/C=C/C=C/C=C/[C@H](O[C@@H]2O[C@H](C)[C@@H](O)[C@H](N)[C@@H]2O)C[C@@H]2O[C@](O)(C[C@@H](O)C[C@@H](O)[C@H](O)CC[C@@H](O)C[C@@H](O)CC(=O)O[C@H]1C)C[C@H](O)[C@H]2C(=O)O` [amphotericin B]: in assay [1], the “effect of agent on ionophore-induced activated myeloid dendritic cell phenotype” value is on record as “enhanced the induction of an activated myeloid dendritic cell phenotype; also recorded: enhance calcium ionophore's effect”. The “effect of agent alone on monocytes” value in assay [1] (without ionophore) is recorded as “no or little effect alone”.
With `CCCC(=O)Nc1ncnc2c1ncn2[C@@H]1O[C@@H]2COP(=O)(O)O[C@H]2[C@H]1OC(=O)CCC` [dibutryl cAMP], the “effect of agent on ionophore-induced activated myeloid dendritic cell phenotype” value in assay [1] is recorded as “inhibited at least some of the ionophore's effects”.
On to `CCCC(=O)Nc1nc2c(ncn2C2O[C@H]3COP(=O)(O)O[C@@H]3[C@@H]2OC(=O)CCC)c(=O)[nH]1` (stereo partly shown) [dibutryl cGMP], for which the “effect of agent on ionophore-induced activated myeloid dendritic cell phenotype” value in assay [1] was “enhanced CD14 downregulation and upregulation of costimulatory, MHC, and other molecule expression”.
As to `CO[C@H]1[C@@H](OC)C[C@H](C)[C@@H](OC)C2=CC(=O)C=C(NC(=O)/C(C)=C/C=C\[C@H](OC)[C@@H](OC(N)=O)/C(C)=C/[C@@H]1C)C2=O` [herbimycin A], the “effect of agent on ionophore-induced activated myeloid dendritic cell phenotype” value in assay [1] is “inhibited at least some of the ionophore's effects”.
Consider `C[C@H](CCC(=O)O)C[C@H](C)C[C@H](C)C(=O)/C=C(\O)[C@H](C)C[C@H](C)C/C=C/[C@@H](C)[C@@H](O)[C@@H](C)[C@@H](O)C[C@@H]1CC[C@@](C)([C@H]2CC[C@@](C)([C@@H](C)O)O2)O1` [ionomycin], for which, in assay [1] (added at the beginning of a 24-48 hr culture period), the “activation and dendritic cell phenotypic conversion of pooled monocyte plus DC fractions” value is “uniform activation and dendritic cell phenotypic conversion”.
Regarding `C=C1[C@@H](O)[C@@H]2O[C@]3(CC[C@H](/C=C/[C@@H](C)[C@@H]4CC(C)=C[C@@]5(O[C@H](C[C@@](C)(O)C(=O)O)CC[C@H]5O)O4)O3)CC[C@H]2O[C@@H]1[C@@H](O)C[C@H](C)[C@H]1O[C@@]2(CCCCO2)CC[C@H]1C` [okadaic acid], the “effect of agent on ionophore-induced activated myeloid dendritic cell phenotype” value in assay [1] was “enhanced CD14 downregulation and upregulation of costimulatory, MHC, and other molecule expression”.
In the case of `C[C@]12C=CC(=O)C=C1CC[C@@H]1[C@@H]2[C@@H](O)C[C@@]2(C)[C@H]1CC[C@]2(O)C(=O)CO` [prednisolone], the “effect of agent on ionophore-induced activated myeloid dendritic cell phenotype” value in assay [1] was “inhibited at least some of the ionophore's effects”.
`CN[C@@H]1C[C@H]2O[C@@](C)([C@@H]1OC)n1c3ccccc3c3c4c(c5c6ccccc6n2c5c31)C(=O)NC4` [staurosporine]: in assay [1], the “effect of agent on ionophore-induced activated myeloid dendritic cell phenotype” value was “enhanced CD14 downregulation and upregulation of costimulatory, MHC, and other molecule expression”.
For the molecule “MCP-1: chemokine inducing monocyte chemotaxis”, the “induction of activated myeloid dendritic cell phenotype (CD80 and CD83 expression)” value (from here on “induction”) in assay [1] is “do not induce monocytes to express the phenotype of activated myeloid dendritic cells”.
Regarding rhGM-CSF: recombinant human GM-CSF, the “effect on HL-60 phenotype” value with HL-60 cells [3] (rhGM-CSF alone) was “little effect alone”. Moreover, the “effect of agent on ionophore-induced activated myeloid dendritic cell phenotype” value in assay [1] is “enhanced CD14 downregulation and upregulation of costimulatory, MHC, and other molecule expression”.
With rhIL-4: recombinant human IL-4, in assay [1], the “effect of agent on ionophore-induced activated myeloid dendritic cell phenotype” value is “enhanced CD14 downregulation and upregulation of costimulatory, MHC, and other molecule expression”.
For rhIL-6: recombinant human IL-6, in assay [1], the “effect of agent on ionophore-induced activated myeloid dendritic cell phenotype” value was “little or no effect”.

B1: RANTES: chemokine inducing monocyte chemotaxis (protein, UniProt P13501 24-91, looked up)
C-C motif chemokine 5: SPYSSDTTPCCFAYIARPLPRAHIKEYFYTSGKCSNPAVVFVTRKNRQVCANPEKKWVREYINSLEMS
As for B1, the “induction” value in assay [1] is given as “do not induce monocytes to express the phenotype of activated myeloid dendritic cells”.

B2: MIP-1-alpha: chemokine inducing monocyte chemotaxis (protein, UniProt P10147 24-92, looked up)
C-C motif chemokine 3: SLAADTPTACCFSYTSRQIPQNFIADYFETSSQCSKPGVIFLTKRSRQVCADPSEEWVQKYVSDLELSA
As to B2, the “induction” value in assay [1] was “do not induce monocytes to express the phenotype of activated myeloid dendritic cells”.

B3: rhIL-12: recombinant human IL-12 (protein, UniProt P29459 23-219; P29460 23-328, looked up)
Interleukin-12 subunit alpha: RNLPVATPDPGMFPCLHHSQNLLRAVSNMLQKARQTLEFYPCTSEEIDHEDITKDKTSTVEACLPLELTKNESCLNSRETSFITNGSCLASRKTSFMMALCLSSIYEDLKMYQVEFKTMNAKLLMDPKRQIFLDQNMLAVIDELMQALNFNSETVPQKSSLEEPDFYKTKIKLCILLHAFRIRAVTIDRVMSYLNAS
Interleukin-12 subunit beta: IWELKKDVYVVELDWYPDAPGEMVVLTCDTPEEDGITWTLDQSSEVLGSGKTLTIQVKEFGDAGQYTCHKGGEVLSHSLLLLHKKEDGIWSTDILKDQKEPKNKTFLRCEAKNYSGRFTCWWLTTISTDLTFSVKSSRGSSDPQGVTCGAATLSAERVRGDNKEYEYSVECQEDSACPAAEESLPIEVMVDAVHKLKYENYTSSFFIRDIIKPDPPKNLQLKPLKNSRQVEVSWEYPDTWSTPHSYFSLTFCVQVQGKSKREKKDRVFTDKTSATVICRKNASISVRAQDRYYSSSWSEWASVPCS
For B3, in assay [1], the “effect of agent on ionophore-induced activated myeloid dendritic cell phenotype” value was “enhanced CD14 downregulation and upregulation of costimulatory, MHC, and other molecule expression”.

B4: rhIL-10: recombinant human IL-10 (protein, UniProt P22301 19-178, looked up)
Interleukin-10: SPGQGTQSENSCTHFPGNLPNMLRDLRDAFSRVKTFFQMKDQLDNLLLKESLLEDFKGYLGCQALSEMIQFYLEEVMPQAENQDPDIKAHVNSLGENLKTLRLRLRRCHRFLPCENKSKAVEQVKNAFNKLQEKGIYKAMSEFDIFINYIEAYMTMKIRN
For B4, the “effect of agent on ionophore-induced activated myeloid dendritic cell phenotype” value in assay [1] is “inhibited at least some of the ionophore's effects”.

B5: rhIFN-gamma: recombinant human interferon gamma (protein, UniProt P01579 24-161, looked up)
Interferon gamma: QDPYVKEAENLKKYFNAGHSDVADNGTLFLGILKNWKEESDRKIMQSQIVSFYFKLFKNFKDDQSIQKSVETIKEDMNVKFFNSNKKKRDDFEKLTNYSVTDLNVQRKAIHELIQVMAELSPAAKTGKRKRSQMLFRG
In the case of B5, the HLA-DR expression entry in the assay with HL-60 cells [2] (agent alone) is listed as “induces HLA-DR expression”. Moreover, the “effect of agent on ionophore-induced activated myeloid dendritic cell phenotype” value in assay [1] was “enhanced CD14 downregulation and upregulation of costimulatory, MHC, and other molecule expression”.

B6: rhIL-1 alpha: recombinant human IL-1 alpha (protein, UniProt P01583 113-271, looked up)
Interleukin-1 alpha: SAPFSFLSNVKYNFMRIIKYEFILNDALNQSIIRANDQYLTAAALHNLDEAVKFDMGAYKSSKDDAKITVILRISKTQLYVTAQDEDQPVLLKEMPEIPKTITGSETNLLFFWETHGTKNYFTSVAHPNLFIATKQDYWVCLAGGPPSITDFQILENQA
Take B6: in assay [1], the “effect of agent on ionophore-induced activated myeloid dendritic cell phenotype” value is “little or no effect”.
